Laboratory results: BigSolDB 2.1

Cc1cnc(N)s1
Conditions | solubility (mole fraction)
in 1,4-dioxane, 278.15 K | 0.0399
in 1,4-dioxane, 280.65 K | 0.0431
in 1,4-dioxane, 283.15 K | 0.0474
in 1,4-dioxane, 285.65 K | 0.0517
in 1,4-dioxane, 288.15 K | 0.0563
in 1,4-dioxane, 290.65 K | 0.0618
in 1,4-dioxane, 293.15 K | 0.0673
in 1,4-dioxane, 295.65 K | 0.0737
in 1,4-dioxane, 298.15 K | 0.0806
in 1,4-dioxane, 300.65 K | 0.0881
in 1,4-dioxane, 303.15 K | 0.0961
in 1,4-dioxane, 305.65 K | 0.105
in 1,4-dioxane, 308.15 K | 0.115
in 1,4-dioxane, 310.65 K | 0.126
in 1,4-dioxane, 313.15 K | 0.138
in 2-butanone, 278.15 K | 0.0365
in 2-butanone, 280.65 K | 0.0405
in 2-butanone, 283.15 K | 0.0448
in 2-butanone, 285.65 K | 0.049
in 2-butanone, 288.15 K | 0.0535
in 2-butanone, 290.65 K | 0.0585
in 2-butanone, 293.15 K | 0.064
in 2-butanone, 295.65 K | 0.0705
in 2-butanone, 298.15 K | 0.0776
in 2-butanone, 300.65 K | 0.0849
in 2-butanone, 303.15 K | 0.093
in 2-butanone, 305.65 K | 0.101
in 2-butanone, 308.15 K | 0.111
in 2-butanone, 310.65 K | 0.121
in 2-butanone, 313.15 K | 0.133
in acetone, 278.15 K | 0.0493
in acetone, 280.65 K | 0.0535
in acetone, 283.15 K | 0.0587
in acetone, 285.65 K | 0.0637
in acetone, 288.15 K | 0.0692
in acetone, 290.65 K | 0.0756
in acetone, 293.15 K | 0.0825
in acetone, 295.65 K | 0.09
in acetone, 298.15 K | 0.0979
in acetone, 300.65 K | 0.107
in acetone, 303.15 K | 0.116
in acetone, 305.65 K | 0.126
in acetone, 308.15 K | 0.137
in acetone, 310.65 K | 0.15
in acetone, 313.15 K | 0.163
in acetonitrile, 278.15 K | 0.0284
in acetonitrile, 280.65 K | 0.031
in acetonitrile, 283.15 K | 0.0341
in acetonitrile, 285.65 K | 0.0372
in acetonitrile, 288.15 K | 0.0406
in acetonitrile, 290.65 K | 0.0446
in acetonitrile, 293.15 K | 0.0489
in acetonitrile, 295.65 K | 0.0536
in acetonitrile, 298.15 K | 0.0586
in acetonitrile, 300.65 K | 0.0638
in acetonitrile, 303.15 K | 0.0699
in acetonitrile, 305.65 K | 0.0763
in acetonitrile, 308.15 K | 0.0838
in acetonitrile, 310.65 K | 0.0921
in acetonitrile, 313.15 K | 0.1
in cyclohexane, 283.15 K | 0.000429
in cyclohexane, 285.65 K | 0.000491
in cyclohexane, 288.15 K | 0.000566
in cyclohexane, 290.65 K | 0.000645
in cyclohexane, 293.15 K | 0.000736
in cyclohexane, 295.65 K | 0.000839
in cyclohexane, 298.15 K | 0.000953
in cyclohexane, 300.65 K | 0.00108
in cyclohexane, 303.15 K | 0.00123
in cyclohexane, 305.65 K | 0.00138
in cyclohexane, 308.15 K | 0.00156
in cyclohexane, 310.65 K | 0.00173
in cyclohexane, 313.15 K | 0.00194
in ethanol, 278.15 K | 0.0486
in ethanol, 280.65 K | 0.0529
in ethanol, 283.15 K | 0.0574
in ethanol, 285.65 K | 0.0629
in ethanol, 288.15 K | 0.0677
in ethanol, 290.65 K | 0.0736
in ethanol, 293.15 K | 0.0799
in ethanol, 295.65 K | 0.0869
in ethanol, 298.15 K | 0.095
in ethanol, 300.65 K | 0.103
in ethanol, 303.15 K | 0.112
in ethanol, 305.65 K | 0.122
in ethanol, 308.15 K | 0.133
in ethanol, 310.65 K | 0.144
in ethanol, 313.15 K | 0.157
in ethyl acetate, 278.15 K | 0.0523
in ethyl acetate, 280.65 K | 0.0567
in ethyl acetate, 283.15 K | 0.0614
in ethyl acetate, 285.65 K | 0.067
in ethyl acetate, 288.15 K | 0.0726
in ethyl acetate, 290.65 K | 0.0791
in ethyl acetate, 293.15 K | 0.086
in ethyl acetate, 295.65 K | 0.0934
in ethyl acetate, 298.15 K | 0.101
in ethyl acetate, 300.65 K | 0.109
in ethyl acetate, 303.15 K | 0.118
in ethyl acetate, 305.65 K | 0.129
in ethyl acetate, 308.15 K | 0.14
in ethyl acetate, 310.65 K | 0.152
in ethyl acetate, 313.15 K | 0.164
in isopropanol, 278.15 K | 0.0345
in isopropanol, 280.65 K | 0.0381
in isopropanol, 283.15 K | 0.0415
in isopropanol, 285.65 K | 0.0452
in isopropanol, 288.15 K | 0.0497
in isopropanol, 290.65 K | 0.0546
in isopropanol, 293.15 K | 0.0594
in isopropanol, 295.65 K | 0.0647
in isopropanol, 298.15 K | 0.0709
in isopropanol, 300.65 K | 0.0775
in isopropanol, 303.15 K | 0.085
in isopropanol, 305.65 K | 0.0927
in isopropanol, 308.15 K | 0.102
in isopropanol, 310.65 K | 0.112
in isopropanol, 313.15 K | 0.121
in methanol, 278.15 K | 0.0594
in methanol, 280.65 K | 0.0639
in methanol, 283.15 K | 0.0686
in methanol, 285.65 K | 0.0742
in methanol, 288.15 K | 0.0796
in methanol, 290.65 K | 0.086
in methanol, 293.15 K | 0.0927
in methanol, 295.65 K | 0.0999
in methanol, 298.15 K | 0.107
in methanol, 300.65 K | 0.116
in methanol, 303.15 K | 0.125
in methanol, 305.65 K | 0.135
in methanol, 308.15 K | 0.146
in methanol, 310.65 K | 0.157
in methanol, 313.15 K | 0.169
in n-propanol, 278.15 K | 0.037
in n-propanol, 280.65 K | 0.0404
in n-propanol, 283.15 K | 0.0441
in n-propanol, 285.65 K | 0.0482
in n-propanol, 288.15 K | 0.0526
in n-propanol, 290.65 K | 0.0575
in n-propanol, 293.15 K | 0.0628
in n-propanol, 295.65 K | 0.0686
in n-propanol, 298.15 K | 0.075
in n-propanol, 300.65 K | 0.082
in n-propanol, 303.15 K | 0.0898
in n-propanol, 305.65 K | 0.098
in n-propanol, 308.15 K | 0.107
in n-propanol, 310.65 K | 0.117
in n-propanol, 313.15 K | 0.128
in toluene, 278.15 K | 0.0109
in toluene, 280.65 K | 0.0121
in toluene, 283.15 K | 0.0136
in toluene, 285.65 K | 0.0149
in toluene, 288.15 K | 0.0167
in toluene, 290.65 K | 0.0185
in toluene, 293.15 K | 0.0205
in toluene, 295.65 K | 0.0225
in toluene, 298.15 K | 0.0251
in toluene, 300.65 K | 0.028
in toluene, 303.15 K | 0.0312
in toluene, 305.65 K | 0.0348
in toluene, 308.15 K | 0.039
in toluene, 310.65 K | 0.0438
in toluene, 313.15 K | 0.0493
